Laboratory results taken from patent US20240254508A1, “Multi-Genome Editor Construct and Uses Thereof” (Colossal Biosciences Inc., priority 2023, published 2024).

Tests used:
[1] = test system: Super Editor incorporated HEK293T cells; test: Editing enzyme induction in Super Editor incorporated HEK293T cells (fluorescent imaging / FACS); type: cell-based; settings: 1/5/10 μg/mL doxycycline, 30/120/300 μg/mL cumate, 10/40/100 μM TMP, 0.25/1.25/6.25 μM Shield 1, 24-72 hours after treatment
Protocol: FIGS. 3A-3D show fluorescence-activated cell sorting (FACS) of individual editor induction by super editor integrated HEK293T cells. FACS analysis was done for doxycycline induced Cas9 expression (FIG. 3A), cumate induced ABE expression (FIG. 3B), trimethoprim induced CBE expression (FIG. 3C), and shield 1 induced CGBE expression (FIG. 3D). Cells were fixed 72 hours after treatment for FACS quantification. Bar graphs plotting the induction ratios of each dose curve are provided for each different genome editor enzyme induction (FIGS. 3A-3D).
Incorporation of Super Editor in HEK293T cells: 300,000 HEK293T cells were transfected by 4 μg of Super Editor plasmid and 3 μg PiggyBac transposase plasmid using 10 μL of Lipofectamine 2000 according to the manufacturer's protocol in a 6-well plate format. 2 μg/mL doxycycline was supplemented to the cells 48 hours in advance. The transfected cells were enriched twice by Fluorescence-activated cell sorting (FACS) gated with doxycycline induced TagRFP657 (far red) fluorescent signals 1 week and 3 weeks after transfection. The 1st enrichment selected the top 0.2% (10,000 cells) of the TagRFP657+ population. The 2nd enrichment selected the top 5% (374,000 cells) of the TagRFP657+ population.
Doxycycline induced Cas9, reported by TagRFP657 (far red); cumate induced ABE, reported by TagBFP (blue); trimethoprim induced CBE reported by, eGFP (green); Shield 1 induced CGBE, reported by mCherry (red). Cells were analyzed by fluorescent imaging or FACS 24-72 hours after treatment. FACS analysis was performed on 4% PFA fixed samples (FIGS. 3A-3D). Inducers were refreshed everyday with new media.

HEK293T cells = test: Transient induction of single module plasmids in HEK293T cells; type: cell-based; settings: 2 μg/ml doxycycline, 120 μg/ml cumate, 10 μM TMP, 6.25 μM shield 1
Protocol: HEK293T cells were transfected with the single module plasmids comprising the corresponding regulatory element. The HEK293T cells were treated with the corresponding inducers to generate expression of the genome editing enzyme along with the fluorescent marker accompanying each genome editing enzyme. HEK293T cells were transfected with a doxycycline inducible Cas9 editing enzyme, a cumate inducible ABE, a trimethoprim (TMP) inducible CBE, and a shield 1 inducible CGBE.

Compound	induction of editing enzyme expression, reported by fluorescent protein [1]	expression of genome editing enzyme and fluorescent marker after inducer treatment (HEK293T cells)
CC[C@H](C(=O)N1CCCC[C@H]1C(=O)O[C@H](CCc1ccc(OC)c(OC)c1)c1cccc(OCCN2CCOCC2)c1)c1cc(OC)c(OC)c(OC)c1 [Shield 1]	induced CGBE	CGBE and mCherry were expressed
CC(C)c1ccc(C(=O)O)cc1 [cumate]	induced ABE	ABE and BFP were expressed
COc1cc(Cc2cnc(N)nc2N)cc(OC)c1OC [trimethoprim]	induced CBE	CBE and eGFP were expressed
